Results taken from ChEMBL document CHEMBL5696442, “Discovery of type II inhibitors of TGFβ-activated kinase 1 (TAK1) and mitogen-activated protein kinase kinase kinase kinase 2 (MAP4K2)” (J Med Chem, 2015).

Legend:
[1] = biological target: T1, Phosphatidylinositol 5-phosphate 4-kinase type-2 gamma (Homo sapiens) (UniProt Q8TBX8); assay: Inhibition of PIP4K2C ATP labeling site harbouring VKELPTLKDMDFLNK in human Huh-7 cell lysate at 1 uM by KiNativ Profiling analysis relative to control; format: subcellular
T1 sequence (whole entry): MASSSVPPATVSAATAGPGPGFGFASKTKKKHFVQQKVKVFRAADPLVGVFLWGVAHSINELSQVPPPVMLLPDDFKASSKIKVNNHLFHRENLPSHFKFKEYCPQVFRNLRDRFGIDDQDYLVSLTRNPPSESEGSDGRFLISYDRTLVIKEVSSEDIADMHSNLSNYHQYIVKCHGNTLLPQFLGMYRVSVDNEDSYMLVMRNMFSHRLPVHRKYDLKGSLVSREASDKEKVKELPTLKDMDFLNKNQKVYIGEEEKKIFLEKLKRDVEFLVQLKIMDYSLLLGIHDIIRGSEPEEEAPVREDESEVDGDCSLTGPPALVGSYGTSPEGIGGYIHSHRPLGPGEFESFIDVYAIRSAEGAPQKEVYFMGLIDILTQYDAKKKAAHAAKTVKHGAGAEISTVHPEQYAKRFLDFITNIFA

[2] = system: Receptor-type tyrosine-protein kinase FLT3 (Homo sapiens), P36888 [K663Q]; assay: Inhibition of FLT3 K663Q mutant (unknown origin) at 10 uM by Ambit Kinomescan binding assay relative to control
[3] = biological target: T2, Serine/threonine-protein kinase ULK3 (Homo sapiens) (UniProt Q6PHR2); assay: Inhibition of ULK3 Lys2 labeling site in human A-375 cells at 0.05 uM by KiNativ Profiling analysis relative to control; format: cell-based
T2 sequence (whole entry): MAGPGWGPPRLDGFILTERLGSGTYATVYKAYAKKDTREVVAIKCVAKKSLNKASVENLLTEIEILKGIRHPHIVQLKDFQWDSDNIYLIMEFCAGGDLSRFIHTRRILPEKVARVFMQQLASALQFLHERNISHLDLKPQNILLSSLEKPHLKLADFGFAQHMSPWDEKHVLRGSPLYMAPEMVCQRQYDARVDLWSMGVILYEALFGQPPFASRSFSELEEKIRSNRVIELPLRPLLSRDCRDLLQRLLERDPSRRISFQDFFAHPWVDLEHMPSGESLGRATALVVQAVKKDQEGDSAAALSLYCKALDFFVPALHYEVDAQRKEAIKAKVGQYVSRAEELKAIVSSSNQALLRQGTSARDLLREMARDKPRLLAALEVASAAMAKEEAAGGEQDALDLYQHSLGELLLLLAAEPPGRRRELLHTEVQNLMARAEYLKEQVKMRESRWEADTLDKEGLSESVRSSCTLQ

[4] = biological target: T3, Serine/threonine-protein kinase greatwall (Homo sapiens) (UniProt Q96GX5); assay: Inhibition of MASTL K2 labeling site in human Huh-7 cells at 1 uM by KiNativ Profiling analysis relative to control; format: cell-based
T3 sequence (whole entry): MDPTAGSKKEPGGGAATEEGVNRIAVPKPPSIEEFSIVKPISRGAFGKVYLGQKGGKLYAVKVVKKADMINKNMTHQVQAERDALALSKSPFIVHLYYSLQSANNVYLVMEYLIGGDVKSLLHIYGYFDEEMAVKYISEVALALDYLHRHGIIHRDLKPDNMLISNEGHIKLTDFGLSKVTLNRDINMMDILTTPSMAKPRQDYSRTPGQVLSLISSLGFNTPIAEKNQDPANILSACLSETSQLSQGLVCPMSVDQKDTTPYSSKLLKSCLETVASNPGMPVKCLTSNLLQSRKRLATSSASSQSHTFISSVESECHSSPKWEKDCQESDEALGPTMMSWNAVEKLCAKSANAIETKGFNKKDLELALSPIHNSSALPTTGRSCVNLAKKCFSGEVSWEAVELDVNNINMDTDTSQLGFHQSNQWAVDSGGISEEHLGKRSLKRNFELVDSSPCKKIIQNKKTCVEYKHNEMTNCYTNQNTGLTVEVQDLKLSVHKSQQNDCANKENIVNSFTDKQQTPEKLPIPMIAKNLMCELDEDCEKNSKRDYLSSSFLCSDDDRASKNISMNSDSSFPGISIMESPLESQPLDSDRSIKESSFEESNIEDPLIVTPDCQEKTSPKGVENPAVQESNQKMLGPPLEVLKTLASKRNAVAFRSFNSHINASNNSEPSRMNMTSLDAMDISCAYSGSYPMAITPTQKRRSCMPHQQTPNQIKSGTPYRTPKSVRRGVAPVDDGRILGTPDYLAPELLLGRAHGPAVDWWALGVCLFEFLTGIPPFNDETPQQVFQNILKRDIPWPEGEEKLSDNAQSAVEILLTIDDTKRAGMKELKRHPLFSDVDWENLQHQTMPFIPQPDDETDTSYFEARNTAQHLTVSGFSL

[5] = biological target: T4, Eukaryotic elongation factor 2 kinase (Homo sapiens) (UniProt O00418); assay: Inhibition of eEF2K ATP labeling site harbouring YIKYNSNSGFVR in human A-375 cells at 0.5 uM by KiNativ Profiling analysis relative to control; format: cell-based
T4 sequence (whole entry): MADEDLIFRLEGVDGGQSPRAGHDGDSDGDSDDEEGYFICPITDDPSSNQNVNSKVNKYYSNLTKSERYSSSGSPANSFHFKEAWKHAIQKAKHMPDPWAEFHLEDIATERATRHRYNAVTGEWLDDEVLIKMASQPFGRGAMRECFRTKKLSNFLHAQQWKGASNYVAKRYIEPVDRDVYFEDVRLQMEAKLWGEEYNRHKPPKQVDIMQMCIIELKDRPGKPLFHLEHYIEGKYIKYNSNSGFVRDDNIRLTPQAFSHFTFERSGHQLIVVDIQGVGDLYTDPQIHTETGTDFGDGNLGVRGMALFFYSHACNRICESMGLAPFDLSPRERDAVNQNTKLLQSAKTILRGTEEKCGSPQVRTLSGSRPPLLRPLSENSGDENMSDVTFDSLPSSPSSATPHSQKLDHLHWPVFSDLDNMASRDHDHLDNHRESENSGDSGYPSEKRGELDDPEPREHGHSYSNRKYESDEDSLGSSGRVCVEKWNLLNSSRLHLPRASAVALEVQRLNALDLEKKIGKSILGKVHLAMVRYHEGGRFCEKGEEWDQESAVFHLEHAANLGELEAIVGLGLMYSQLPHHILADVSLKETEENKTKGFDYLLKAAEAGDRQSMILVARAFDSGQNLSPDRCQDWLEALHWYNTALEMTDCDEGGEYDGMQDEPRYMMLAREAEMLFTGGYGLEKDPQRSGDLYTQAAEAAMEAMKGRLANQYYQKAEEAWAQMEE

[6] = biological target: 5'-AMP-activated protein kinase catalytic subunit alpha-2 (Homo sapiens) (UniProt P54646); assay: Inhibition of AMPKa2 Lys2 labeling site in human A-375 cells at 0.05 uM by KiNativ Profiling analysis relative to control; format: cell-based
5'-AMP-activated protein kinase catalytic subunit alpha-2 (Homo sapiens), sequence (P54646 whole entry, looked up): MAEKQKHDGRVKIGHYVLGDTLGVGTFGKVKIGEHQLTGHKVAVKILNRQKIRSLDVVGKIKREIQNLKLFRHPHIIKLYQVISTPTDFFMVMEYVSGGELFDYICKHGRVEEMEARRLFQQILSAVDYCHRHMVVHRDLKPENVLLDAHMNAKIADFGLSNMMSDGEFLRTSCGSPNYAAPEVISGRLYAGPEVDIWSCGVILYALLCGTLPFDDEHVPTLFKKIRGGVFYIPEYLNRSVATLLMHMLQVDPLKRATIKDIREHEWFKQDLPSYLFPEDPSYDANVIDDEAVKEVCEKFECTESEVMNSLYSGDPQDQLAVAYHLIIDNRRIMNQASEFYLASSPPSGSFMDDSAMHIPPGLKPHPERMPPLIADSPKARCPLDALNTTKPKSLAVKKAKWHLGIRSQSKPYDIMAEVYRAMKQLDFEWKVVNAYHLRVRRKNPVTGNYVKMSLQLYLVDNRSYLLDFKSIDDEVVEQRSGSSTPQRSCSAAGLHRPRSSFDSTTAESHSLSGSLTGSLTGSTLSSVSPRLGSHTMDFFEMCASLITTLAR

`CNc1cc(Oc2cc(C(=O)Nc3cc(N4CCN(C)CC4)cc(C(F)(F)F)c3)ccc2C)ncn1` was tested. Which inhibition [1] did it give?
Its inhibition is 11.6%.

For `CCN1CCN(Cc2ccc(NC(=O)c3ccc(C)c(Oc4ccnc5[nH]ccc45)c3)cc2C(F)(F)F)CC1`, which inhibition [2] is on record?
Its inhibition is 0%.

What about the inhibition [3] of the same compound?
Its inhibition is 6.7%.

What about the inhibition [4] of the same compound?
Its inhibition is -2.1%.

Which results are given for `CCN1CCN(Cc2ccc(NC(=O)c3ccc(C)c(/C=C/c4cnc5[nH]ccc5c4OC)c3)cc2C(F)(F)F)CC1`?
inhibition [5]: -8.5%; inhibition [6]: 7.3%
